Data published in patent publication US9969715B2, “Compounds useful for treating cancer” (ABIVAX, priority 2012, dated 2018).
Read-outs that look alike come from different tables or passages of the source.

Tests used:
[1] = test system: MDA-MB231-luc-D3H2LN cells; test: Viability (MTS) assay on the cells in collagen under invasion assay conditions; format: cell-based, human; settings: loss of viability at the concentration giving 0.5 × effect of 10 μM Y-27632, invasion assay conditions
Procedure: (§1) Viability assay, fixation and staining: Following another 24 h incubation, an MTS assay is performed directly on the cells in the collagen. Then, cells are fixed and nuclei are stained.
(§2) In order to detect possible toxic effects, all compounds are tested in parallel in a viability assay. The viability assay is performed in parallel on serum-starved cells (as in the invasion assay) vs. cells under normal culture conditions (10% FBS).
Viability Assay: MTS Assay:
add each 33 μl/well of the MTS reagent, incubate 3-4 h at 37° C./5% CO2
read absorbance at 490 nm (proportional to the viability)
calculate the background-corrected signals by subtracting the means of the background signals in absence of cells from the corresponding signals in presence of cells
normalize the background-corrected signals with respect to the mean signal of the negative controls (no drug) (viabilities are thus expressed in “% of control”)
(§3) Final analysis: Determine the concentration at which a given compound has 50% of the anti-invasive effect of the positive control (10 μM Y-27632). Determine the toxicity (=loss of viability) of the compound under these conditions.

human PBMC = test: Toxicity assay under normal cell culture conditions (MTS), PBMC; format: cell-based; settings: for toxicity on PBMC compared to comparative compound (in words): 1 vs C88 (112), 3 vs 583, 4 vs 585; for PBMC tox.: 50% tox. at (μM) av: human PBMC, RPMI+10% FBS+IL-2, 72 h incubation, MTS
Procedure: (§4) Toxicity Assays (Under Normal Cell Culture Conditions):
(§5) Compounds were prepared as for the invasion assay, and then added to either MDA-MB231-luc-D3H2LN cells (2000/well) under normal culture conditions (MEM+10% FBS), or human PBMC (75000/well, in RPMI+10% FBS+IL-2) in standard 96-well tissue culture plates. After 72 h incubation, a standard MTS assay was performed according to the manufacturer's instructions (Promega Ref. G3581). Compounds were tested at various concentrations (concentration-response curves) in order to determine the concentrations at which 50% toxicity is obtained.

[2] = test system: MDA-MB231-luc-D3H2LN cells; test: Invasion of MDA-MB231-D3H2LN cells into collagen (example 15 = procedure 2, 48 h drug pre-incubation); format: cell-based; settings: for invasiveness inhibition compared to comparative compound (in words): 1 vs C88 (112), 4 vs 585
Procedure: Effect of Drug Compounds on Invasion of MDA-MB231-D3H2LN Cells into Collagen
Preparation of cells at the bottom of a collagen gel: Cells are suspended in a liquid collagen solution (4° C.), distributed into BSA-coated wells, and then collected at the bottom of the wells by centrifugation. The collagen is then solidified by incubation at 37° C. The BSA coating improves the adhesion of the collagen gel.
Pre-treatment with the compounds to be tested: Concentrated drug solutions are then added on top of the collagen, and cells are pre-incubated for 48 h with the drugs at low serum conditions (0.025% FBS).
Stimulation of invasion: Medium with 5% FBS is then added in order to stimulate invasion of the cells into the collagen gel.
as §1
Analysis: Finally, plates are analyzed using an automated microscope. Fluorescent beads that have been included into the BSA coating serve to detect the bottom of the wells. Pictures of the stained nuclei are taken at the same level (0 μm) as well as 25 μm and 50 μm above.
Negative control: No drug (just DMSO at equivalent concentration). Positive control: 10 μM Y-27632. To avoid edge effects, cells are added only to the 60 central wells B2-G11; lines A and H receive only collagen without cells (blank for the MTS assay) columns 1 and 12 remain free. Each drug is tested at least in triplicate. The positive and negative controls should be tested in several triplicates at different positions on each plate. Typical plate map (−=negative control, +=positive control, 1-12=12 different test conditions, i. e. different drug compounds or concentrations):
Preparation of 4× concentrated drug solutions in MEM+0.1% FBS+2% Lutrol E-400+0.8% DMSO: Mix each 620 μl MEM+0.1% FBS+2% Lutrol E-400 with each 4 μl DMSO+each 1 μl of the 50 mM compound stock solutions (yielding […] and 0.8% DMSO). If the desired final compound concentration is <5 μM, then further dilute in MEM+0.1% FBS+0.8% DMSO. Negative control: MEM+0.1% FBS+2% Lutrol E-400+0.8% DMSO without any drug. Preparation of the positive control: Mix 4.5 ml MEM+0.1% FBS+2% Lutrol E-400+[…] with 36 μl 5 mM Y-27632 (freshly thawed aliquot) (yielding 40 μM).
add each 33 μl/well of the 4× concentrated drug solutions in MEM+0.1% FBS+2% Lutrol E-400+0.8% DMSO to the corresponding wells (yields 1× concentrated drugs in MEM+0.025% FBS+0.5% Lutrol E-400+0.2% DMSO final)
incubate 48 h at 37° C./5% CO2
incubate 24 h at 37° C./5% CO2
for each well, calculate the mean invasion distance of the counted cells: (25 μm×number of cells at 25 μm+50 μm×number cells at 50 μm)/sum of cells at 0, 25 and 50 μm
invalidate any replicate with a CV≥50% (compound to be re-tested, or assay to be repeated if CV≥50% for the untreated negative control or the compound Y-27632-treated positive control). Y27632 is a selective inhibitor of the Rho-associated protein kinase p160ROCK of the following formula
validate the assay only if the mean invasion distance of the cells treated with 10 μM Y-27632 (positive control) is decreased by ≥40% as compared to the untreated negative control
as §3
Here, invasion (into collagen) is the concentration of the compound necessary to reach 50% of the inhibition effect compared to 10 μM Y-27632.
Standard operating procedure 2 is exactly the same as the procedure as described in example 15.

[3] = test system: MDA-MB231-luc-D3H2LN cells; test: Toxicity assay under normal cell culture conditions (MTS), MDA cells; format: cell-based, human; settings: for toxicity on MDA-MB231 compared to comparative compound (in words): 1 vs C88 (112), 3 vs 583, 4 vs 585; for MDA tox: 50% tox. at (μM) av: MDA-MB231-luc-D3H2LN cells, MEM+10% FBS, 72 h incubation, MTS
Procedure: as §2, §4, §5

hERG channel = molecular target: T1, hERG channel (Homo sapiens, UniProt Q12809); test: hERG channel inhibition (electrophysiology, hERG-transfected HEK293 cells); format: cell-based; settings: for % hERG inhibition in transfected HEK (n = 3) at 1 μM av: 1 μM compound; for % hERG inhibition in transfected HEK (n = 3) at 10 μM av: 10 μM compound; for hERG inhibition compared to comparative compound (in words): 1 vs C88 (112), 3 vs 583, 4 vs 585
T1 construct: host or cells: HEK293
T1 sequence (Q12809 whole entry): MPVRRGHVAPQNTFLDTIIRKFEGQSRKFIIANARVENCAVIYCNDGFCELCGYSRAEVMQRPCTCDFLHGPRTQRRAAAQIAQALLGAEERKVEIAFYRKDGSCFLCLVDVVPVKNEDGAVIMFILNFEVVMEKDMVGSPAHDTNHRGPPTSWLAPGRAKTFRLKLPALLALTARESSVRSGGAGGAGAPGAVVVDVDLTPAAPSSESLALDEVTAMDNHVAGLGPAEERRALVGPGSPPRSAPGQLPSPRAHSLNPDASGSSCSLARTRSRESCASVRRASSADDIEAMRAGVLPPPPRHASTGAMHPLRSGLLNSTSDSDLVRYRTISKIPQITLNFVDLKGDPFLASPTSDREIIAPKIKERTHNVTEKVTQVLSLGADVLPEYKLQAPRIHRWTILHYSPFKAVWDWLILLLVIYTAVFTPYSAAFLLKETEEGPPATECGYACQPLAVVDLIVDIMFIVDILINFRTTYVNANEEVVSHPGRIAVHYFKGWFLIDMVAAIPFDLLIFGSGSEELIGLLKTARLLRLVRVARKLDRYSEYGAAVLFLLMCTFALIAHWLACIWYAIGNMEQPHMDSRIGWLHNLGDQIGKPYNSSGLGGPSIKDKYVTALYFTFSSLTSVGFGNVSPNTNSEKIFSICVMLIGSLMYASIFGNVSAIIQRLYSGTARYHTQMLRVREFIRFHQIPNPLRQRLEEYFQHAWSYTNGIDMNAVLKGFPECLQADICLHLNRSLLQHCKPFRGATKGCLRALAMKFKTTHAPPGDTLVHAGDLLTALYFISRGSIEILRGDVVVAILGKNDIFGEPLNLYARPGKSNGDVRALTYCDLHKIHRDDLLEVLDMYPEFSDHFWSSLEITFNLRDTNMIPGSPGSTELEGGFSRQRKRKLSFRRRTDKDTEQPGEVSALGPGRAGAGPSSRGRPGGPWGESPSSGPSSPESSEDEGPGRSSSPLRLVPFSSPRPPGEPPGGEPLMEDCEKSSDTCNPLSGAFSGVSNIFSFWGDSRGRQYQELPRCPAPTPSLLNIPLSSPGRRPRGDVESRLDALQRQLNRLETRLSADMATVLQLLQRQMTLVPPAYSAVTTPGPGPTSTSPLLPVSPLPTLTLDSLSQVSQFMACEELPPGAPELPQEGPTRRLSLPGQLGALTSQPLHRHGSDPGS
Procedure: Performed by Porsolt & Partners (Z. A. de Glatigné, 53940 Le Genest-Saint-Isle, France). Briefly, each 3 hERG-transfected HEK293 cells were superfused with the compounds at 1 and 10 μM, and the hERG channel current was measured by electrophysiology, as described by Crumb et al., J. Pharmacol. Exp. Ther. 2000.

[4] = concentration giving 50% of the anti-invasive effect of 10 μM Y-27632, 48 h pre-incubation, 24 h with 5% FBS, read-out: MDA: Inhib. of invasion: 0.5 × eff. of 10 μM Y-27632 at (μM) av

CCN(CC)CCCNC(=O)c1cccc(Nc2cccc(C(=O)Nc3ccncc3)c2)c1 [Compound 1, N-(3-(diethylamino)propyl)-3-((3-(pyridin-4-ylcarbamoyl)phenyl)amino)benzamide]
(+ MDA tox. under these cond.) % tox [1]: <10% | toxicity on PBMC compared to comparative compound (in words) (human PBMC): less toxic | PBMC tox.: 50% tox. at (μM) av (human PBMC): 51 µM | invasiveness inhibition compared to comparative compound (in words) [2]: more potent | IC50 ([2]; Homo sapiens, procedure 2, second set of experiments, read-out: Invasion Av.: concentration of the compound necessary to reach 50% of the inhibition effect compared to 10 μM Y-27632): 0.13 µM | IC50 [2, 4]: 0.13 µM | anti-invasive activity (in words) ([2]; second set of experiments, procedure 2 (example 15)): anti-invasive activity is detected | toxicity on MDA-MB231 compared to comparative compound (in words) [3]: less toxic | MDA tox: 50% tox. at (μM) av [3]: 46 µM | % hERG inhibition in transfected HEK (n = 3) at 1 μM av (hERG channel): 13% | % hERG inhibition in transfected HEK (n = 3) at 10 μM av (hERG channel): 47% | hERG inhibition compared to comparative compound (in words) (hERG channel): less hERG inhibition

O=C(NCCCN1CCOCC1)c1cccc(Nc2cccc(C(=O)Nc3ccncc3)c2)c1 [Compound 3, N-(3-morpholinopropyl)-3-((3-(pyridin-4-ylcarbamoyl)phenyl)amino)benzamide]
(+ MDA tox. under these cond.) % tox [1]: <10% | toxicity on PBMC compared to comparative compound (in words) (human PBMC): less toxic | PBMC tox.: 50% tox. at (μM) av (human PBMC): 51 µM | IC50 [2, 4]: 0.29 µM | toxicity on MDA-MB231 compared to comparative compound (in words) [3]: less toxic | MDA tox: 50% tox. at (μM) av [3]: 51 µM | % hERG inhibition in transfected HEK (n = 3) at 1 μM av (hERG channel): 14% | % hERG inhibition in transfected HEK (n = 3) at 10 μM av (hERG channel): 54% | hERG inhibition compared to comparative compound (in words) (hERG channel): less hERG inhibition

O=C(NCCCN1CCCC1)c1cccc(Nc2cccc(C(=O)Nc3ccncc3)c2)c1 [Compound 4, N-(pyridin-4-yl)-3-((3-((3-(pyrrolidin-1-yl)propyl)carbamoyl)phenyl)amino)benzamide]
(+ MDA tox. under these cond.) % tox [1]: <10% | toxicity on PBMC compared to comparative compound (in words) (human PBMC): less toxic | PBMC tox.: 50% tox. at (μM) av (human PBMC): 42 µM | invasiveness inhibition compared to comparative compound (in words) [2]: more potent | IC50 [2, 4]: 0.21 µM | toxicity on MDA-MB231 compared to comparative compound (in words) [3]: less toxic | MDA tox: 50% tox. at (μM) av [3]: 54 µM | % hERG inhibition in transfected HEK (n = 3) at 1 μM av (hERG channel): 6% | % hERG inhibition in transfected HEK (n = 3) at 10 μM av (hERG channel): 59% | hERG inhibition compared to comparative compound (in words) (hERG channel): less hERG inhibition

CCN(CC)CCCNC(=O)c1cccc(Nc2cccc(C(=O)Nc3ccccn3)c2)c1 [Compound 11, N-(3-(diethylamino)propyl)-3-((3-(pyridin-2-ylcarbamoyl)phenyl)amino)benzamide]
PBMC tox.: 50% tox. at (μM) av (human PBMC): 47 µM | IC50 [2, 4]: > 2 µM | MDA tox: 50% tox. at (μM) av [3]: 44 µM | % hERG inhibition in transfected HEK (n = 3) at 1 μM av (hERG channel): 64% | % hERG inhibition in transfected HEK (n = 3) at 10 μM av (hERG channel): 87%

CCN(CC)CCCNC(=O)c1cccc(Nc2cc(C(=O)Nc3ccncc3)ccn2)n1 [Compound 43, N-(3-(diethylamino)propyl)-6-((4-(pyridin-4-ylcarbamoyl)pyridin-2-yl)amino)picolinamide]
(+ MDA tox. under these cond.) % tox [1]: <10% | PBMC tox.: 50% tox. at (μM) av (human PBMC): >100 µM | IC50 [2, 4]: 3.25 µM | MDA tox: 50% tox. at (μM) av [3]: >100 µM

CCN(CC)CCCNC(=O)c1ccnc(Nc2cc(C(=O)Nc3ccncc3)ccn2)c1 [Compound 44, N-(3-(diethylamino)propyl)-2-((4-(pyridin-4-ylcarbamoyl)pyridin-2-yl)amino)isonicotinamide]
(+ MDA tox. under these cond.) % tox [1]: <10% | PBMC tox.: 50% tox. at (μM) av (human PBMC): >100 µM | IC50 [2, 4]: 1.15 µM | MDA tox: 50% tox. at (μM) av [3]: >100 µM

CN1CCN(CCCNC(=O)c2ccnc(Nc3cc(C(=O)Nc4ccncc4)ccn3)c2)CC1 [Compound 45, N-(3-(4-methylpiperazin-1-yl)propyl)-2-((4-(pyridin-4-ylcarbamoyl)pyridin-2-yl)amino)isonicotinamide]
(+ MDA tox. under these cond.) % tox [1]: <10% | PBMC tox.: 50% tox. at (μM) av (human PBMC): >100 µM | IC50 [2, 4]: 0.38 µM | MDA tox: 50% tox. at (μM) av [3]: >100 µM

CCN(CC)CCCNC(=O)c1cccc(Nc2cc(C(=O)Nc3ccncc3)ccn2)c1 [Compound 47, 2-((3-((3-(diethylamino)propyl)carbamoyl)phenyl)amino)-N-(pyridin-4-yl)isonicotinamide]
(+ MDA tox. under these cond.) % tox [1]: <10% | PBMC tox.: 50% tox. at (μM) av (human PBMC): >100 µM | IC50 [2, 4]: 2.2 µM | MDA tox: 50% tox. at (μM) av [3]: >100 µM

O=C(NCCCN1CCOCC1)c1cccc(Nc2cc(C(=O)Nc3ccncc3)ccn2)c1 [Compound 48, 2-((3-((3-morpholinopropyl)carbamoyl)phenyl)amino)-N-(pyridin-4-yl) isonicotinamide]
(+ MDA tox. under these cond.) % tox [1]: <10% | PBMC tox.: 50% tox. at (μM) av (human PBMC): 26 µM | IC50 [2, 4]: 0.75 µM | MDA tox: 50% tox. at (μM) av [3]: 80 µM

O=C(NCCCN1CCCC1)c1cccc(Nc2cc(C(=O)Nc3ccncc3)ccn2)c1 [Compound 50, N-(pyridin-4-yl)-2-((3-((3-(pyrrolidin-1-yl)propyl)carbamoyl)phenyl)amino) isonicotinamide]
(+ MDA tox. under these cond.) % tox [1]: <10% | PBMC tox.: 50% tox. at (μM) av (human PBMC): >100 µM | IC50 [2, 4]: 1.88 µM | MDA tox: 50% tox. at (μM) av [3]: ≥100 µM

CN1CCN(CCCNC(=O)c2cccc(Nc3cc(C(=O)Nc4ccncc4)ccn3)c2)CC1 [Compound 51, 2-((3-((3-(4-methylpiperazin-1-yl)propyl)carbamoyl)phenyl)amino)-N-(pyridin-4-yl)isonicotinamide]
(+ MDA tox. under these cond.) % tox [1]: <10% | PBMC tox.: 50% tox. at (μM) av (human PBMC): >100 µM | IC50 [2, 4]: 0.3 µM | MDA tox: 50% tox. at (μM) av [3]: ≥100 µM
